# Test results: ChEMBL document CHEMBL5465560, “Selectivity Literature for EUbOPEN Chemogenomic Library” (2024)
# pIC50: −log10 of the molar value.
# How the values were obtained:
# [1] = system: Epidermal growth factor receptor (Homo sapiens), P00533 [UNDEFINED MUTATION]; assay: Selectivity interaction (KinomeScan (DiscoverX)) EUB0000229b EGFR; details: at 1 µM
# [2] = target: Histone-lysine N-methyltransferase SUV39H2 (Homo sapiens) (UniProt Q9H5I1); details: at 1 µM
# [3] = target: T1, Alpha-2C adrenergic receptor (Homo sapiens) (UniProt P18825); assay: Selectivity interaction (GPCR panel (PDSP screen)) EUB0001079a ADRA2C; details: at 10 µM
# T1 sequence (whole entry): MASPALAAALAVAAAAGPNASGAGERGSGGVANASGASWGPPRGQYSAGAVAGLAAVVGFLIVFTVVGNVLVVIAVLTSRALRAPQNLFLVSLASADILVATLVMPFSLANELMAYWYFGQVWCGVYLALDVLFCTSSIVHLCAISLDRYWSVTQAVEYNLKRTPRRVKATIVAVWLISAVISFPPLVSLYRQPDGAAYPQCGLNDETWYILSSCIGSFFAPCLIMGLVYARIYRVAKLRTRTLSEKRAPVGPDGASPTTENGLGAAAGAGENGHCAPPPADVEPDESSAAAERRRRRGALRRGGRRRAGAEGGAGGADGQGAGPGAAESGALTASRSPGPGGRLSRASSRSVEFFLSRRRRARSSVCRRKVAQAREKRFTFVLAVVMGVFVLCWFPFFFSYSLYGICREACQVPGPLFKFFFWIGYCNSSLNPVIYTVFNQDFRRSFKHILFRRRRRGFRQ
# [4] = target: T2, Dual specificity mitogen-activated protein kinase kinase 5 (Homo sapiens) (UniProt Q13163); assay: Selectivity interaction (KinomeScan (DiscoverX)) EUB0001079a MAP2K5; details: at 1 µM
# T2 sequence (whole entry): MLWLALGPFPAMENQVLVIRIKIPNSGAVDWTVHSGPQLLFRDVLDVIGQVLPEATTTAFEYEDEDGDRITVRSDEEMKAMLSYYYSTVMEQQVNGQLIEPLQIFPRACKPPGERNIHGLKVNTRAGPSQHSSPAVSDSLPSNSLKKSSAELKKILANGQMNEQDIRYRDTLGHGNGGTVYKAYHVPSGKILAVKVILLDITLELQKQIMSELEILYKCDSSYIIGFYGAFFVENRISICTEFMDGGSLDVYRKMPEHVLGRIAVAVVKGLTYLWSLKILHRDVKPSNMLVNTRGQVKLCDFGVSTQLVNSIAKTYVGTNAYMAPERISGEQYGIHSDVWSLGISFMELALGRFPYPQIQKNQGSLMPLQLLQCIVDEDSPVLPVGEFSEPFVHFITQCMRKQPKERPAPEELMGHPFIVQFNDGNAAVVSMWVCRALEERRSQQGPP
# [5] = target: Tyrosine-protein kinase Lck (Homo sapiens, UniProt P06239); assay: Selectivity interaction (Radiometric kinase assay (using 10 uM ATP)) EUB0000601a LCK
# [6] = target: LIM domain kinase 1 (Homo sapiens) (UniProt P53667); assay: Selectivity interaction (KinomeScan (DiscoverX)) EUB0000607a LIMK1; details: at 10 µM
# [7] = target: Casein kinase II subunit alpha (Homo sapiens, UniProt P68400); assay: Selectivity interaction (Kinase panel (DSF assay)) EUB0001558a CSNK2A1
# [8] = target: Cyclin-dependent kinase 11B (Homo sapiens) (UniProt P21127); assay: Selectivity interaction (KinomeScan (DiscoverX)) EUB0000618a CDK11B; details: at 10 µM
# [9] = target: T3, Serine/threonine-protein kinase Nek9 (Homo sapiens) (UniProt Q8TD19); assay: Selectivity interaction (Kinase panel (Invitrogen)) EUB0000639a NEK9; details: at 200 nM
# T3 sequence (whole entry): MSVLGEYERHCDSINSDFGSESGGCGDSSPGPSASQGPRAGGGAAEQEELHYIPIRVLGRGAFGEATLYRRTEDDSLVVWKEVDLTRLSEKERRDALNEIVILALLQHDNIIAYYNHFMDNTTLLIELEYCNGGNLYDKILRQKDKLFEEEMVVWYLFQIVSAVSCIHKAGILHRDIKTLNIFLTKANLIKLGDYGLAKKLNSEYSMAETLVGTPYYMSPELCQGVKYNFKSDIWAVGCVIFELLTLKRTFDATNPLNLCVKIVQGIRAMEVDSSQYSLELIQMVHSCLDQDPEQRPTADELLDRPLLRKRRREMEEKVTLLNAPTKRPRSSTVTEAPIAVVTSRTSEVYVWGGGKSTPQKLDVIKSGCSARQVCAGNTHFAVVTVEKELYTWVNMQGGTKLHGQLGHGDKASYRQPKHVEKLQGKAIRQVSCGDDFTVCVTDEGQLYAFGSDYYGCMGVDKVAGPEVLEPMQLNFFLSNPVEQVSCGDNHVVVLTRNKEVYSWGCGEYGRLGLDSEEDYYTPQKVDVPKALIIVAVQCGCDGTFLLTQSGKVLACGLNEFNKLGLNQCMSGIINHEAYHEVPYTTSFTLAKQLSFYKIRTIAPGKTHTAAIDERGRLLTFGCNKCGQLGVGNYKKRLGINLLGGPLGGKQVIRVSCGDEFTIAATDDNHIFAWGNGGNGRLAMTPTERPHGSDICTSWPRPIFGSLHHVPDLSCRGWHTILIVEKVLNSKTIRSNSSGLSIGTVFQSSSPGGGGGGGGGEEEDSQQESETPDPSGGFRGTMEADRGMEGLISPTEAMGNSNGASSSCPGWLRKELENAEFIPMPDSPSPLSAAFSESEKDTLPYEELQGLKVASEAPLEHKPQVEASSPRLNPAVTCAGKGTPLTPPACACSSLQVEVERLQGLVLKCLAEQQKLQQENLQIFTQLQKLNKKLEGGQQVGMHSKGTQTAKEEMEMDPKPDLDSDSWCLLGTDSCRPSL
# [10] = target: T4, Serine/threonine-protein kinase 3 (Homo sapiens) (UniProt Q13188); assay: Selectivity interaction (Ambit KINOMEscan and KiNATiv profiling in Jurkat cells) EUB0000090b STK3; assay type: cell-based; details: at 1 µM
# T4 sequence (whole entry): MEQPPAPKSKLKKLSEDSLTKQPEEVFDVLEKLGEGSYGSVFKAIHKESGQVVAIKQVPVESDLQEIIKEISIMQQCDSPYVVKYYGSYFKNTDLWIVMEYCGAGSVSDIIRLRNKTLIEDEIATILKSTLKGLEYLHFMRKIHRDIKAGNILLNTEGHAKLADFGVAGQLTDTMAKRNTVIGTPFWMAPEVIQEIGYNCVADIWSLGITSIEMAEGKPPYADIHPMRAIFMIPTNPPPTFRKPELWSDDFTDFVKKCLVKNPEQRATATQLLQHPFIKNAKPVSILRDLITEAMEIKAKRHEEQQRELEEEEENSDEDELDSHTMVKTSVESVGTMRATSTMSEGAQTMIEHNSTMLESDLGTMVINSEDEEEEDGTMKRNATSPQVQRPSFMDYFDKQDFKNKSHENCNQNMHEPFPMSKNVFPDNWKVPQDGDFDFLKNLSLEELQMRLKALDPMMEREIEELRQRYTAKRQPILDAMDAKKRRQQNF
# Epidermal growth factor receptor (Homo sapiens), P00533 [UNDEFINED MUTATION], sequence (P00533 whole entry, looked up, change not shown): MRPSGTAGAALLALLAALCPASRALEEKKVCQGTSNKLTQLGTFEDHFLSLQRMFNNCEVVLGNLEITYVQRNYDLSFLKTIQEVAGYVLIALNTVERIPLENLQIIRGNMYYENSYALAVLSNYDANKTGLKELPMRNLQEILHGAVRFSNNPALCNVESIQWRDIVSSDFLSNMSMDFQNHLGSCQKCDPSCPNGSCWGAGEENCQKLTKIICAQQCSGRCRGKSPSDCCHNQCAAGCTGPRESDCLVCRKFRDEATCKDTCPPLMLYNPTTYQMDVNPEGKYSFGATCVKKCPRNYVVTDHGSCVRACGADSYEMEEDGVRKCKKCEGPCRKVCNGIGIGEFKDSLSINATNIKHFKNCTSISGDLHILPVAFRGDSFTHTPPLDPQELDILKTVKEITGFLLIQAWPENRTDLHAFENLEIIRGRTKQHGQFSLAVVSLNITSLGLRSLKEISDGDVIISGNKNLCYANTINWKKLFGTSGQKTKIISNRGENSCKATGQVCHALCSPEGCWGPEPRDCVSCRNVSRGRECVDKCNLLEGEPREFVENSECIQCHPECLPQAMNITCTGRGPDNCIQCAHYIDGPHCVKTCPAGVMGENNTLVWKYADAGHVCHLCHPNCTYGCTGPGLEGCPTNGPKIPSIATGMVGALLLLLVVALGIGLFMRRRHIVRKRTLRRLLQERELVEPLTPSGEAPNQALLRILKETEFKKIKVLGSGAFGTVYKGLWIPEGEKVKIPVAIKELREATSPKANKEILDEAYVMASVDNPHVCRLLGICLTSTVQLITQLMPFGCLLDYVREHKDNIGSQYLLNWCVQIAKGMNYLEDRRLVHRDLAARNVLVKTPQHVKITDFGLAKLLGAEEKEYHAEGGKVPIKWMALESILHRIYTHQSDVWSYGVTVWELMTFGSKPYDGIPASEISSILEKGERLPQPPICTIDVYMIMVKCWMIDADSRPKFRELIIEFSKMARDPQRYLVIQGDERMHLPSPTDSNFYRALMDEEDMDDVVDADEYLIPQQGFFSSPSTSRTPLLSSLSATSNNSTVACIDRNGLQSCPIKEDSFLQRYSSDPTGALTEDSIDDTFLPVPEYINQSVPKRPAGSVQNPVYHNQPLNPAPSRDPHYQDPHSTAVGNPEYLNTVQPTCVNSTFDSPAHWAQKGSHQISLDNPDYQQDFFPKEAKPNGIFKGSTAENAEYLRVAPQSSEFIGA
# Casein kinase II subunit alpha, sequence (P68400 whole entry, looked up): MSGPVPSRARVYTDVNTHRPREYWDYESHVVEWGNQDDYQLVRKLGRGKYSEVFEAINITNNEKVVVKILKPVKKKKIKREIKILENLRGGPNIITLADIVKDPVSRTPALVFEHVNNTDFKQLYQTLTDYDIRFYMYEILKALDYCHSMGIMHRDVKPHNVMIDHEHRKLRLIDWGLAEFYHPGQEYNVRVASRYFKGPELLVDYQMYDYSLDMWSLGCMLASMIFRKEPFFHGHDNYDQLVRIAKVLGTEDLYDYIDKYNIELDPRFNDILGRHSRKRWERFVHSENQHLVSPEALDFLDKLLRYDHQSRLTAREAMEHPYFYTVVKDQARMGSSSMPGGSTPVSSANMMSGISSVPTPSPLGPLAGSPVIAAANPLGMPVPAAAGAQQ
# Histone-lysine N-methyltransferase SUV39H2 (Homo sapiens), sequence (Q9H5I1 whole entry): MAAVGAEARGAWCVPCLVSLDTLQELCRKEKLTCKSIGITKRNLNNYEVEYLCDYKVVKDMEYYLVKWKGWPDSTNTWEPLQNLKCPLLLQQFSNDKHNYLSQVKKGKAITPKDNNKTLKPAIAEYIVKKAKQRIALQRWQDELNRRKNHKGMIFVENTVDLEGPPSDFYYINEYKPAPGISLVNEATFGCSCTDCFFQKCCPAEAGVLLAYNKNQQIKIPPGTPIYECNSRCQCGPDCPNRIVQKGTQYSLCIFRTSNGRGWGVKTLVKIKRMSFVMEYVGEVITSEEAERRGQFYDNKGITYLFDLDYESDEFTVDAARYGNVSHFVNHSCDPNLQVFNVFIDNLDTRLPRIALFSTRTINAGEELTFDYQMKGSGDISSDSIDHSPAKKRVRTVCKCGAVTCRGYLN
# LIM domain kinase 1 (Homo sapiens), sequence (P53667 whole entry, looked up, the tested form may be a part): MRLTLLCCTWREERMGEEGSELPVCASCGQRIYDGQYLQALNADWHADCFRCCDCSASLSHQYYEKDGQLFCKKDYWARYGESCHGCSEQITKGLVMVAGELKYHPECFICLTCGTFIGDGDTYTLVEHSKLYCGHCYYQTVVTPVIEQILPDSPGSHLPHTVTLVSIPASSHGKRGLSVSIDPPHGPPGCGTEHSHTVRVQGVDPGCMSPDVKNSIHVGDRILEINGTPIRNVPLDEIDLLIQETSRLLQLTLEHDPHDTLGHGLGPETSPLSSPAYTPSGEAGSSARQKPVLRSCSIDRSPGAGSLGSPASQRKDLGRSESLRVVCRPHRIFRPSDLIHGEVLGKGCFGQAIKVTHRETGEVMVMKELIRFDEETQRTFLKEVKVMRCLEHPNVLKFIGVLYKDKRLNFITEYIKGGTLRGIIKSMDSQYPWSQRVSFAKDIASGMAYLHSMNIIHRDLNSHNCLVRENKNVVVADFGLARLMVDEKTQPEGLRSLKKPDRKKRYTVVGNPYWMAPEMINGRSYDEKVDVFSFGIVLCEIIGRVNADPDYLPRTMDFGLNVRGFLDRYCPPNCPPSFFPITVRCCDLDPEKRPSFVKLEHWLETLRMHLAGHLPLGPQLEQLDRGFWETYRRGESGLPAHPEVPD
# Tyrosine-protein kinase Lck, sequence (P06239 whole entry, the tested form may be a part): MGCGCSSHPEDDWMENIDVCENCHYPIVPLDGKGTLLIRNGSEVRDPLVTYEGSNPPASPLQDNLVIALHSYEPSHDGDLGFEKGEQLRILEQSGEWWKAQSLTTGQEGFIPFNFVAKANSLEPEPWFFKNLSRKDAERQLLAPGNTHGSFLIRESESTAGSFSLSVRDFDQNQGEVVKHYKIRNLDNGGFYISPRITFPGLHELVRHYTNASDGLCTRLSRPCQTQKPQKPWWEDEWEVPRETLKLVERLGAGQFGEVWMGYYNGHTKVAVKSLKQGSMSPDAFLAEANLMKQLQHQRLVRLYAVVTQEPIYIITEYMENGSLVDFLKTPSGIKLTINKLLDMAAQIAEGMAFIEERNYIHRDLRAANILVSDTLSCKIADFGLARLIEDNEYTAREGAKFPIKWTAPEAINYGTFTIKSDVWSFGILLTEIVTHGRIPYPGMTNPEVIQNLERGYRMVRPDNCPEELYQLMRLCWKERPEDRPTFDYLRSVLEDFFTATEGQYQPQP
# Cyclin-dependent kinase 11B (Homo sapiens), sequence (P21127 whole entry): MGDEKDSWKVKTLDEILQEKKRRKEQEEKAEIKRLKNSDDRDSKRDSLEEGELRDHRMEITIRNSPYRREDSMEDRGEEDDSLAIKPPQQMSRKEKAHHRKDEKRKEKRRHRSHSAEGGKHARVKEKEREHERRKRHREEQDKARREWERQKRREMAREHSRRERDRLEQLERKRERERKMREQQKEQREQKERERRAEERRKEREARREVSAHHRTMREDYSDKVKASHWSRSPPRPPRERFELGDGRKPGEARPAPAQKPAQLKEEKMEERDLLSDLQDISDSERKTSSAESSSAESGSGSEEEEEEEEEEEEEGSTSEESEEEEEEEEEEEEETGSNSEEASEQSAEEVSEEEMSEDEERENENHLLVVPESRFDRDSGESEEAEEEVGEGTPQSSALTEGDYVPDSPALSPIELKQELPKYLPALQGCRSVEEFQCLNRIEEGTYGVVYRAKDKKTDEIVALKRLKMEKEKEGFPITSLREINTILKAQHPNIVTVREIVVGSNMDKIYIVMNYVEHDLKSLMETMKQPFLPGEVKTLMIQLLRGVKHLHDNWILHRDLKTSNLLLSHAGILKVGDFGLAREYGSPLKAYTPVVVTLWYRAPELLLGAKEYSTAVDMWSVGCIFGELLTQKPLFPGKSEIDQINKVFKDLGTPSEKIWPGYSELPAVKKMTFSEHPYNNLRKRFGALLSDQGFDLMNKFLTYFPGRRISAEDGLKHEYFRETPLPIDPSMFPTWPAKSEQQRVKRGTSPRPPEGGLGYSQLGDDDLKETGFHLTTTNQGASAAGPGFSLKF
smiles,measurement,setting,value
COc1cc(N(C)c2ccnc3ccc(C(F)(F)F)cc23)cc(OC)c1OC,% binding,[1],92%
CNCCN1CCC(c2cc(CN(C)C(=O)c3cccc(Oc4ccccc4)c3)ccn2)CC1,% activity,[2],> 90%
Nc1cnc(N2CCc3cc(S(=O)(=O)Nc4c(F)cc(Cl)cc4F)cc(N4CCCC4=O)c32)nc1 [TP-020n],% of inhibition,[3],-14.3%
same,% of control,[4],84%
CCc1cc(Nc2nccc(-c3c(-c4ccc(OC)c(C(=O)Nc5c(F)cccc5F)c4)nc4ccccn34)n2)c(OC)cc1N1CCC(N2CCN(S(C)(=O)=O)CC2)CC1,pIC50,[5],< 5.52
CNC(=O)Nc1ccc(-c2nc(N3CC4CCC(C3)O4)c3cnn(C4CCC5(CC4)OCCO5)c3n2)cc1,% of control,[6],95%
CC(C)(O)[C@H](F)CN1Cc2cc(NC(=O)c3cnn4cccnc34)c(N3CCOCC3)cc2C1=O,dTM,[7],0.3 K
O[C@H]1CC[C@H](Nc2ncc3nc(Nc4c(F)cc(F)cc4F)n([C@H]4CCOC4)c3n2)CC1,% of control,[8],91%
CC[C@@H]1[C@H](F)C(=O)N[C@@H]1COc1nccc2cc(C(N)=O)c(OC)cc12 [ZIMLOVISERTIB],% of inhibition,[9],2.82%
CN(C)C/C=C/C(=O)Nc1ccc(C(=O)N2CCCC(Nc3ncc(Cl)c(-c4c[nH]c5ccccc45)n3)C2)cc1 (stereo not given),% of control,[10],92%
